Test results from patent US8647644B1, “Methods of using capped mesoporous silicates” (Iowa State University Research Foundation, Inc., priority 2006, dated 2014).
Counter-ions that a name gives are not always drawn.

Key:
[1] = Loading of vancomycin and ATP into linker-MSN with CdS capping, HPLC of filtrate; type: physicochemical; details: for loading efficiency: CdS-capped linker-MSN; for amount of mesopore-encapsulated molecule: per 100.0 mg of linker-MSN material, from concentration decrease in filtrate
Method: Purified linker-MSN material from sub-part (b) below (100.00 mg) was incubated in a PBS buffer solution (0.60 mL, pH 7.4) of ATP or vancomycin (3.00 μmol in both cases) for 24 hours. Mercaptoacetic acid-functionalized CdS nanoparticles from sub-part (c) below (0.15 mmol) were dissolved in 2.00 mL of PBS buffer with vancomycin or ATP (0.01 mmol in both cases); 1-[3-(dimethylamino)propyl]-3-ethylcarbodiimide hydrochloride (EDC) (57.50 mg, 0.30 mmol) was added to the CdS/drug solution. The reaction mixture was allowed to stir for 24 hours, followed by centrifuging the suspension at 12,000 rpm for 3 minutes. The resulting precipitates (ATP- or vancomycin-loaded, CdS-capped MSNs) were isolated and dried under vacuum.
The water-soluble CdS nanocrystals (average particle diameter of 2.0 nm) with mercaptoacetic acid groups were covalently captured and formed amide bonds by reacting with the mesopore surface-bound 2-(propyldisulfanyl)ethylamine linkers of the MSN/drug composite material in aqueous solutions. The resulting reaction suspensions were centrifuged, and the CdS-capped MSN/drug composite materials along with the unreacted CdS nanoparticles were filtered. The concentrations of the free vancomycin and ATP molecules in the filtrate were then determined by HPLC. The calculated concentration decreases of solution vancomycin and ATP were attributed to the amounts of mesopore-encapsulated vancomycin (2.5 μmol) and ATP (4.7 μmol) per 100.0 mg of linker-MSN material. These numbers correspond to ca. 83.9 and 30.3 mol % loading efficiency, respectively.

type-1 astrocytes = assay: Intracellular calcium imaging (Fura-2) of astrocyte cultures; details: no MSNs
Method: After incubation, tissue was rinsed with EBSS solution and incubated for 5 minutes in trypsin-inhibitor solution (1 mg/mL; Gibco-Invitrogen Co.). After being rinsed, once with EBSS solution and once with culture medium (consisting of α-minimum essential medium (α-MEM; Gibco-Invitrogen Co.) supplemented with 10% heat-inactivated fetal bovine serum (FBS; Gibco-Invitrogen Co.) and 1.00 mL of penicillin-streptomycin solution (Sigma-Aldrich Co.) per 100 mL), the tissue was mechanically dispersed in culture medium by triturating through a fire-polished glass pipet. The cell suspension was transferred to sterile 15-mL centrifuge tubes and spun at 1000 g for 10 minutes. Cell pellets were resuspended in culture medium (α-MEM supplemented with 10% heat-inactivated FBS and 1.00 mL of penicillin-streptomycin solution per 100.00 mL) and plated in culture flasks. […] Culture medium was changed every 2 to 3 days. When mixed cultures reached confluence (9-12 days), the flasks were shaken (260 rpm) for 90 minutes to remove microglia and dividing type I astroglia. After shaking the cells, medium was replaced, and the flasks were incubated for 1 hour to equilibrate with CO2 in the fresh medium. […]
The effect of experimental manipulation on the intracellular calcium concentration ([Ca^2+]i) of cultured cells was evaluated by ratiometric imaging techniques. […]

[2] = DTT-induced drug/neurotransmitter release study (HPLC); type: physicochemical; details: for release within 24 hours as share of total release seen in 3 days: from CdS-capped MSN after 18.5 mM DTT; for amount released after 3 days of DTT-induced uncapping / encapsulated molecule released after 3 days of DTT-induced uncapping: from CdS-capped MSN, PBS pH 7.4
Method: CdS-capped MSN with vancomycin or ATP (10.00 mg) material was dispersed in 1.50 mL of PBS buffer (pH 7.4), followed by repeating wash/sonication/centrifugation cycles for five times to remove physisorbed, uncapped vancomycin or ATP molecules on the exterior surface of the material. The purified MSN/drug composite was redispersed in 3.50 mL of PBS buffer (pH 7.4). Aliquots were taken every 4 hours over a time period of 12 hours from the MSN/water suspension and injected to an analytical HPLC system (Hitachi LC/3DQMS with a reverse phase C18 column (Vydac), 0.4 cm×25 cm) to monitor the leaching of the mesoporous channel encapsulated vancomycin or ATP molecules. After 12 hours, dithiothreitol (DTT, 18.50 mM) was added to the suspension to cleave the disulfide linkage between the CdS nanoparticle and the MSN. The kinetic profiles of the DTT-induced release of vancomycin and ATP were monitored by following two literature-reported HPLC separation conditions. The peaks/areas at 280 and 258 nm were monitored/integrated for the quantitative analysis of amounts of released vancomycin and ATP, respectively. See Farin et al., J. Pharm. Biomed. Anal. 1998, 18:367; and Veciana-Nogues et al., Food Chem. 1997, 59:467.

protoplasts = details: 1-2 mg of DNA per 10^6 cells; cited from earlier work
[3] = test system: tobacco mesophyll protoplasts; assay: Endocytosis experiments with tobacco mesophyll protoplasts (Example 11); type: cell-based, Nicotiana tabacum; details: 1 mM LYCH, overnight in W5
Method: Tobacco protoplasts were mixed with MSN in W5 media (Spangenberg et al., supra) using 10^6 cells for 10 μg of MSN. The mix was incubated overnight in 3 mL of W5 in BD Falcon 6-well flat-bottom plates. To remove non-engulfed MSN (except for FIG. 20A), the mixture were overlaid on K4 medium (Spangenberg et al., supra) and centrifuge at 100×g for 10 minutes at room temperature. The protoplasts at the interphase were collected and evaluated. Isolated live cells experiments images were taken using a 63× oil objective with a Leica TCS/NT laser scanning confocal microscope equipped with Argon 488 nm and Krypton 568 nm lasers plus a double dichroic DD488/568 filter. To detect fluorescence in the green channel, a combination of RSP580 and BP525/25 filters was used under wavelength between 500 and 550 nm. For the red channel, wavelength above 590 nm was selected using a LP590 filter. During scanning, pinhole was maintained at 1 for all images. Images were acquired using TCS software and analyzed using ImageJ (Abramoff et al., Biophotonics Int'l 2004, 11:36). Whole tissue images were taken under either bright field or GFP band pass exciter 460-490 nm with emission filter 510-550 nm using an Olympus SHZ10 stereoscope coupled to a SPOT RT color CCD camera (Diagnostic Instrument Inc.). Images were acquired with SPOT software.

Compound | loading efficiency [1] | amount of mesopore-encapsulated molecule [1] [µmol] | release within 24 hours as share of total release seen in 3 days [2] [%] | amount released after 3 days of DTT-induced uncapping [2] [µmol] | encapsulated molecule released after 3 days of DTT-induced uncapping [2] [%] | also measured
Nc1ncnc2c1ncn2[C@@H]1O[C@H](COP(=O)([O-])OP(=O)([O-])OP(=O)(O)O)[C@@H](O)[C@H]1O.[Na+].[Na+] [ATP, adenosine triphosphate disodium salt] | ~30.3 mol % | 4.7 | 85 | 1.3 | 28.2 | change of intracellular [Ca2+]i (type-1 astrocytes; 100.0 μM, ME-treated astrocytes): obvious increases in [Ca^2+]i
OCCS [ME] |  |  |  |  |  | change of intracellular [Ca2+]i (type-1 astrocytes; perfusion 1.0 mM for 5 minutes): no increase in [Ca^2+]i
polyethylene glycol [polyethylene glycol (PEG)] |  |  |  |  |  | transient transformation efficiency (protoplasts): 40-90%
Lucifer Yellow CH, lithium salts |  |  |  |  |  | protoplasts that underwent endocytosis [3]: 26±7%
CN[C@H](CC(C)C)C(=O)N[C@H]1C(=O)N[C@@H](CC(N)=O)C(=O)N[C@H]2C(=O)N[C@H]3C(=O)N[C@H](C(=O)N[C@H](C(=O)O)c4cc(O)cc(O)c4-c4cc3ccc4O)[C@H](O)c3ccc(c(Cl)c3)Oc3cc2cc(c3O[C@@H]2O[C@H](CO)[C@@H](O)[C@H](O)[C@H]2O[C@H]2C[C@](C)(N)[C@H](O)[C@H](C)O2)Oc2ccc(cc2Cl)[C@H]1O [vancomycin, Vancomycin hydrochloride] | ca. 83.9 mol % | 2.5 | 85 | 1.6 | 53.8 | 
